In paper PMC6753678, “Fueling Open Innovation for Malaria Transmission-Blocking Drugs: Hundreds of Molecules Targeting Early Parasite Mosquito Stages” (Frontiers in Microbiology, 2019):
Like-named read-outs stand apart in the source and are kept apart here.

What was measured:
HepG2 cells = test: HepG2 cytotoxicity assay; details: for Pb ODA (this manuscript) HepG2 cytoxicity: HepG2 cytotoxicity listed with the Pb ODA data set (this manuscript); for IC50: read-out: HepG2 cytotoxicity assay IC50, dose response confirmation
Method in brief: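 Percent inhibition derived from fluorescent viability readout, normalised to DMSO (negative) and 50 μM doxorubicin (positive). Compound incubation lasted 48 h at 37°C, 5% CO2, with 2,500 HepG2 cells/well in MEM plus 10% FBS and 1% NEAA.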

[1] = system: P. berghei ookinete development; details: for % inhibition, Replicate A / % inhibition, Replicate B: primary screen at 1 μM
[2] = system: 3D7-strain P. falciparum asexual parasites; test: P. falciparum asexual growth inhibition assay (Pf GIA); format: cell-based, Plasmodium falciparum; details: dose response confirmation; read-out: Pf asexual growth inhibition assays IC50
Method in brief: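 3D7 parasites at 0.25% parasitemia, 2% hematocrit were exposed to compounds in dose response for 72 h at 37°C under 5% CO2, 5% O2. Viability read as parasite LDH activity (nitro blue tetrazolium, A650) after freeze-thaw; inhibition scaled to chloroquine (50 μM) and DMSO controls, mean of three biological replicates.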

[3] = read-out: Pb ODA (this manuscript) IC50, P. berghei ookinete development assay, this manuscript
[4] = read-out: Pb Ookinete development assay IC50, dose response confirmation
[5] = HepG2 values of the three screens unified
[6] = read-out: Pb ODA IC50, this manuscript

SMILES | Pb ODA (this manuscript) HepG2 cytoxicity (HepG2 cells) [µM] | IC50 (HepG2 cells) [nM] | Is compound selective in assay? Pb ODA active? [1] | % inhibition, Replicate A [1] [%] | % inhibition, Replicate B [1] [%] | IC50 [1, 3] [nM] | IC50 [1, 4] [nM] | IC50 [2] [nM] | HepG2 cytoxicity (Pb ODA, this manuscript) (HepG2 cells) [µM] | Unified cytotox (HepG2 cells; [5]) [µM] | Is compound selective in assay? Pb ODA active? ([1]; 1: YES, 0: NO) | IC50 [1, 6] [nM] | Unified cytotox (HepG2 cells; unified HepG2 value across the three screens) [µM]
Cc1nc(C)c(-c2ccc(Oc3ccc(OC(F)(F)F)cc3)cc2)c(OC(=O)c2ccc(CN(C)C)cc2)c1Cl [TCMDC-137382] | 24.55 | 24600 | 1 (key: 1: YES; 0: NO) | 93.07 | 108.44 | 460 | 462 | 127 | – | – | – | – | –
CC(=O)Oc1c(Br)c(C)nc(C)c1-c1ccc(Oc2ccc(OC(F)(F)F)cc2)cc1 [TCMDC-137383] | 9.89 | 9890 | 1 (key: 1: YES; 0: NO) | 98.12 | 79.70 | 590 | 589 | 150 | – | – | – | – | –
CC(=O)Oc1c(Cl)c(C)nc(C)c1-c1ccc(Oc2ccc(OC(F)(F)F)cc2)cc1 [TCMDC-137385] | 31.99 | 32000 | 1 (key: 1: YES; 0: NO) | 89.00 | 125.42 | 1020 | 1020 | 75 | – | – | – | – | –
Cc1[nH]c(C)c(-c2ccc(Oc3cccc(OC(F)(F)F)c3)cc2)c(=O)c1Cl [TCMDC-137389] | 100.00 | 100000 | 1 (key: 1: YES; 0: NO) | 25.35 | 53.00 | 1130 | 1130 | 470 | – | – | – | – | –
Cc1nc(C)c(-c2ccc(Oc3cc(Cl)cc(Cl)c3)cc2)c(O)c1Cl [TCMDC-137391] | 0.0017 | 1.7 | 0 (key: 1: YES; 0: NO) | 91.21 | 90.22 | 310 | 311 | 1.1 | – | – | – | – | –
Cc1nc(C)c(-c2ccc(Oc3cc(Cl)cc(Cl)c3)cc2)c(O)c1Br [TCMDC-137392] | – | 20000 | – | 78.18 | 115.81 | – | 447 | 498 | 19.95 | 19.95 | 1 (1: YES) | 450 | –
Cc1nc(C)c(-c2ccc(Oc3ccc(Cl)c(Cl)c3)cc2)c(O)c1Cl [TCMDC-137396] | 16.98 | 17000 | 1 (key: 1: YES; 0: NO) | 89.72 | 133.12 | 120 | 124 | 96 | – | – | – | – | –
Cc1nc(C)c(-c2ccc(Oc3ccc(Cl)c(Cl)c3)cc2)c(O)c1Br [TCMDC-137397] | – | 19500 | – | 88.28 | 102.35 | – | 90 | 88 | 19.50 | 19.50 | 1 (1: YES) | – | –
Cc1[nH]c(C)c(-c2ccc(Oc3ccc(F)cc3)cc2)c(=O)c1Br [TCMDC-137402] | – | 3800 | – | 94.48 | 95.56 | – | 57 | 30 | 3.80 | 3.80 | 1 (1: YES) | 56.7 | –
Cc1nc(C)c(-c2ccc(Sc3ccc(Cl)cc3)cc2)c(O)c1Br [TCMDC-137404] | 100.00 | 100000 | 1 (key: 1: YES; 0: NO) | 89.90 | 109.40 | 80 | 77 | 53 | – | – | – | – | –
Cc1[nH]c(C)c(-c2ccc(Oc3ccc(C(F)(F)F)cc3)cc2)c(=O)c1Br [TCMDC-137406] | – | 5750 | – | 103.93 | 109.45 | – | 127 | 133 | 5.75 | 5.75 | 1 (1: YES) | 130 | –
Cc1[nH]c(C)c(-c2ccc(C(=O)c3ccc(Cl)cc3)cc2)c(=O)c1Br [TCMDC-137407] | 44.67 | 44700 | 1 (key: 1: YES; 0: NO) | 83.43 | 91.19 | 80 | 78 | 56 | – | – | – | – | –
Cc1[nH]c(C)c(-c2ccc(Oc3ccccc3)cc2)c(=O)c1Br [TCMDC-137410] | – | 34700 | – | 89.72 | 108.12 | – | 34 | 14 | 34.67 | 34.67 | 1 (1: YES) | 33.8 | –
Cc1[nH]c(C)c(-c2ccc(C(=O)c3ccc(Cl)cc3)cc2)c(=O)c1Cl [TCMDC-137413] | 100.00 | 100000 | 1 (key: 1: YES; 0: NO) | 122.85 | 129.69 | 170 | 171 | 117 | – | – | – | – | –
Cc1[nH]c(C)c(-c2ccc(S(=O)(=O)c3ccc(Cl)cc3)cc2)c(=O)c1Br [TCMDC-137414] | 100.00 | 100000 | 1 (key: 1: YES; 0: NO) | 109.11 | 112.52 | 110 | 112 | 66 | – | – | – | – | –
Cc1cc(=O)c(-c2cccc(Oc3ccc(Cl)cc3)c2)c(C)[nH]1 [TCMDC-137415] | – | 35500 | – | 51.13 | 85.04 | – | 706 | 396 | 35.48 | 35.48 | 1 (1: YES) | 710 | –
Cc1[nH]c(C)c(-c2ccc(-c3ccc(Cl)cc3)cc2)c(=O)c1Cl [TCMDC-137416] | 57.54 | 57500 | 1 (key: 1: YES; 0: NO) | 59.25 | 97.22 | 2430 | 2430 | 378 | – | – | – | – | –
Cc1[nH]c(C)c(C2CCC(c3ccc(Cl)cc3)CC2)c(=O)c1Cl (stereo not shown) [TCMDC-137423] | – | 2240 | – | 93.67 | 102.07 | – | 75 | 44 | – | – | 1 (1: YES) | 75.5 | 2.24
Cc1nc(C)c(-c2ccc(Cl)cc2)c(O)c1I [TCMDC-137424] | 100.00 | 100000 | 1 (key: 1: YES; 0: NO) | 40.29 | 60.84 | 1840 | 1840 | 239 | – | – | – | – | –
